Active and inactive are the calls of the source. The rule behind the calls is not given here.
test system: Staphylococcus aureus; experiment: Antimicrobial activity against Staphylococcus aureus ATCC 29513 at 750 ug/ml after 24 hrs by cup plate method; assay type: functional; details: ATCC 29513, 24 h, read-out: IZ

SMILES | zone of inhibition at 750 µg/mL [mm]
Cc1ccc(C2=CC(c3c(-c4ccccc4)[nH]c4ccccc34)c3c(N)n[nH]c3O2)cc1 (stereo not given) | 3
Cc1ccc2[nH]c(-c3ccccc3)c(C3C=C(c4ccc(Cl)cc4)Oc4nc5oc(=O)c(C#N)c(N)c5c(N)c43)c2c1 (stereo not given) | 13

test system: Escherichia coli; experiment: Antimicrobial activity against Escherichia coli MTCC 723 at 1000 ug/ml after 24 hrs by cup plate method; assay type: functional; details: MTCC 723, 24 h, read-out: IZ

SMILES | zone of inhibition at 1000 µg/mL [mm]
Cc1ccc(C2=CC(c3c(-c4ccccc4)[nH]c4ccccc34)c3c(N)n[nH]c3O2)cc1 (stereo not given) | 8
Cc1ccc2[nH]c(-c3ccccc3)c(C3C=C(c4ccc(Cl)cc4)Oc4nc5oc(=O)c(C#N)c(N)c5c(N)c43)c2c1 (stereo not given) | 13

test system: Pseudomonas aeruginosa; experiment: Antimicrobial activity against Pseudomonas aeruginosa MTCC 1688 at 1000 ug/ml after 24 hrs by cup plate method; assay type: functional; details: MTCC 1688, 24 h, read-out: IZ

SMILES | zone of inhibition at 1000 µg/mL [mm]
Cc1ccc(C2=CC(c3c(-c4ccccc4)[nH]c4ccccc34)c3c(N)n[nH]c3O2)cc1 (stereo not given) | 6
Cc1ccc2[nH]c(-c3ccccc3)c(C3C=C(c4ccc(Cl)cc4)Oc4nc5oc(=O)c(C#N)c(N)c5c(N)c43)c2c1 (stereo not given) | 10

test system: Pseudomonas aeruginosa; experiment: Antimicrobial activity against Pseudomonas aeruginosa MTCC 1688 at 500 ug/ml after 24 hrs by cup plate method; assay type: functional; details: MTCC 1688, 24 h, read-out: IZ

SMILES | zone of inhibition at 500 µg/mL [mm]
Cc1ccc(C2=CC(c3c(-c4ccccc4)[nH]c4ccccc34)c3c(N)n[nH]c3O2)cc1 (stereo not given) | 8
Cc1ccc2[nH]c(-c3ccccc3)c(C3C=C(c4ccc(Cl)cc4)Oc4nc5oc(=O)c(C#N)c(N)c5c(N)c43)c2c1 (stereo not given) | 10

test system: not listed separately; experiment: Antioxidant activity assessed as metal chelating activity by measuring inhibition of ferrozine-Fe2+ complex formation at 25 to 100 ug/ml; assay type: functional; details: not given

SMILES | Activity
Cc1ccc(C2=CC(c3c(-c4ccccc4)[nH]c4ccccc34)c3c(N)n[nH]c3O2)cc1 (stereo not given) | Active
Cc1ccc2[nH]c(-c3ccccc3)c(C3C=C(c4ccc(Cl)cc4)Oc4nc5oc(=O)c(C#N)c(N)c5c(N)c43)c2c1 (stereo not given) | Active

test system: Pseudomonas aeruginosa; experiment: Antimicrobial activity against Pseudomonas aeruginosa MTCC 1688 at 750 ug/ml after 24 hrs by cup plate method; assay type: functional; details: MTCC 1688, 24 h, read-out: IZ

SMILES | zone of inhibition at 750 µg/mL [mm]
Cc1ccc(C2=CC(c3c(-c4ccccc4)[nH]c4ccccc34)c3c(N)n[nH]c3O2)cc1 (stereo not given) | 6
Cc1ccc2[nH]c(-c3ccccc3)c(C3C=C(c4ccc(Cl)cc4)Oc4nc5oc(=O)c(C#N)c(N)c5c(N)c43)c2c1 (stereo not given) | 10

test system: Aspergillus flavus; experiment: Antimicrobial activity against Aspergillus flavus MTCC 1973 at 750 ug/ml after 72 hrs by cup plate method; assay type: functional; details: MTCC 1973, 72 h, read-out: IZ

SMILES | zone of inhibition at 750 µg/mL [mm]
Cc1ccc(C2=CC(c3c(-c4ccccc4)[nH]c4ccccc34)c3c(N)n[nH]c3O2)cc1 (stereo not given) | 2
Cc1ccc2[nH]c(-c3ccccc3)c(C3C=C(c4ccc(Cl)cc4)Oc4nc5oc(=O)c(C#N)c(N)c5c(N)c43)c2c1 (stereo not given) | 5

test system: Staphylococcus aureus; experiment: Antimicrobial activity against Staphylococcus aureus ATCC 29513 at 1000 ug/ml after 24 hrs by cup plate method; assay type: functional; details: ATCC 29513, 24 h, read-out: IZ

SMILES | zone of inhibition at 1000 µg/mL [mm]
Cc1ccc(C2=CC(c3c(-c4ccccc4)[nH]c4ccccc34)c3c(N)n[nH]c3O2)cc1 (stereo not given) | 3
Cc1ccc2[nH]c(-c3ccccc3)c(C3C=C(c4ccc(Cl)cc4)Oc4nc5oc(=O)c(C#N)c(N)c5c(N)c43)c2c1 (stereo not given) | 14

test system: Escherichia coli; experiment: Antimicrobial activity against Escherichia coli MTCC 723 at 500 ug/ml after 24 hrs by cup plate method; assay type: functional; details: MTCC 723, 24 h, read-out: IZ

SMILES | zone of inhibition at 500 µg/mL [mm]
Cc1ccc(C2=CC(c3c(-c4ccccc4)[nH]c4ccccc34)c3c(N)n[nH]c3O2)cc1 (stereo not given) | 8
Cc1ccc2[nH]c(-c3ccccc3)c(C3C=C(c4ccc(Cl)cc4)Oc4nc5oc(=O)c(C#N)c(N)c5c(N)c43)c2c1 (stereo not given) | 13

test system: Aspergillus niger; experiment: Antimicrobial activity against Aspergillus niger MTCC 281 at 750 ug/ml after 72 hrs by cup plate method; assay type: functional; details: MTCC 281, 72 h, read-out: IZ

SMILES | zone of inhibition at 750 µg/mL [mm]
Cc1ccc(C2=CC(c3c(-c4ccccc4)[nH]c4ccccc34)c3c(N)n[nH]c3O2)cc1 (stereo not given) | 9
Cc1ccc2[nH]c(-c3ccccc3)c(C3C=C(c4ccc(Cl)cc4)Oc4nc5oc(=O)c(C#N)c(N)c5c(N)c43)c2c1 (stereo not given) | 10

test system: Escherichia coli; experiment: Antimicrobial activity against Escherichia coli MTCC 723 at 750 ug/ml after 24 hrs by cup plate method; assay type: functional; details: MTCC 723, 24 h, read-out: IZ

SMILES | zone of inhibition at 750 µg/mL [mm]
Cc1ccc(C2=CC(c3c(-c4ccccc4)[nH]c4ccccc34)c3c(N)n[nH]c3O2)cc1 (stereo not given) | 8
Cc1ccc2[nH]c(-c3ccccc3)c(C3C=C(c4ccc(Cl)cc4)Oc4nc5oc(=O)c(C#N)c(N)c5c(N)c43)c2c1 (stereo not given) | 13

test system: Aspergillus oryzae; experiment: Antimicrobial activity against Aspergillus oryzae MTCC 3567 at 1000 ug/ml after 72 hrs by cup plate method; assay type: functional; details: MTCC 3567, 72 h, read-out: IZ

SMILES | zone of inhibition at 1000 µg/mL [mm]
Cc1ccc(C2=CC(c3c(-c4ccccc4)[nH]c4ccccc34)c3c(N)n[nH]c3O2)cc1 (stereo not given) | 7
Cc1ccc2[nH]c(-c3ccccc3)c(C3C=C(c4ccc(Cl)cc4)Oc4nc5oc(=O)c(C#N)c(N)c5c(N)c43)c2c1 (stereo not given) | 3

test system: Aspergillus terreus; experiment: Antimicrobial activity against Aspergillus terreus MTCC 1782 at 750 ug/ml after 72 hrs by cup plate method; assay type: functional; details: MTCC 1782, 72 h, read-out: IZ

SMILES | zone of inhibition at 750 µg/mL [mm]
Cc1ccc(C2=CC(c3c(-c4ccccc4)[nH]c4ccccc34)c3c(N)n[nH]c3O2)cc1 (stereo not given) | 4
Cc1ccc2[nH]c(-c3ccccc3)c(C3C=C(c4ccc(Cl)cc4)Oc4nc5oc(=O)c(C#N)c(N)c5c(N)c43)c2c1 (stereo not given) | 9

test system: Klebsiella pneumoniae; experiment: Antimicrobial activity against Klebsiella pneumoniae NCTC 13368 at 1000 ug/ml after 24 hrs by cup plate method; assay type: functional; details: NCTC 13368, 24 h, read-out: IZ

SMILES | zone of inhibition at 1000 µg/mL [mm]
Cc1ccc(C2=CC(c3c(-c4ccccc4)[nH]c4ccccc34)c3c(N)n[nH]c3O2)cc1 (stereo not given) | 2
Cc1ccc2[nH]c(-c3ccccc3)c(C3C=C(c4ccc(Cl)cc4)Oc4nc5oc(=O)c(C#N)c(N)c5c(N)c43)c2c1 (stereo not given) | 9

test system: Klebsiella pneumoniae; experiment: Antimicrobial activity against Klebsiella pneumoniae NCTC 13368 at 500 ug/ml after 24 hrs by cup plate method; assay type: functional; details: NCTC 13368, 24 h, read-out: IZ

SMILES | zone of inhibition at 500 µg/mL [mm]
Cc1ccc(C2=CC(c3c(-c4ccccc4)[nH]c4ccccc34)c3c(N)n[nH]c3O2)cc1 (stereo not given) | 4
Cc1ccc2[nH]c(-c3ccccc3)c(C3C=C(c4ccc(Cl)cc4)Oc4nc5oc(=O)c(C#N)c(N)c5c(N)c43)c2c1 (stereo not given) | 11

test system: Aspergillus flavus; experiment: Antimicrobial activity against Aspergillus flavus MTCC 1973 at 1000 ug/ml after 72 hrs by cup plate method; assay type: functional; details: MTCC 1973, 72 h, read-out: IZ

SMILES | zone of inhibition at 1000 µg/mL [mm]
Cc1ccc(C2=CC(c3c(-c4ccccc4)[nH]c4ccccc34)c3c(N)n[nH]c3O2)cc1 (stereo not given) | 8
Cc1ccc2[nH]c(-c3ccccc3)c(C3C=C(c4ccc(Cl)cc4)Oc4nc5oc(=O)c(C#N)c(N)c5c(N)c43)c2c1 (stereo not given) | 5

test system: Aspergillus terreus; experiment: Antimicrobial activity against Aspergillus terreus MTCC 1782 at 1000 ug/ml after 72 hrs by cup plate method; assay type: functional; details: MTCC 1782, 72 h, read-out: IZ

SMILES | zone of inhibition at 1000 µg/mL [mm]
Cc1ccc(C2=CC(c3c(-c4ccccc4)[nH]c4ccccc34)c3c(N)n[nH]c3O2)cc1 (stereo not given) | 4
Cc1ccc2[nH]c(-c3ccccc3)c(C3C=C(c4ccc(Cl)cc4)Oc4nc5oc(=O)c(C#N)c(N)c5c(N)c43)c2c1 (stereo not given) | 8

test system: Klebsiella pneumoniae; experiment: Antimicrobial activity against Klebsiella pneumoniae NCTC 13368 at 750 ug/ml after 24 hrs by cup plate method; assay type: functional; details: NCTC 13368, 24 h, read-out: IZ

SMILES | zone of inhibition at 750 µg/mL [mm]
Cc1ccc(C2=CC(c3c(-c4ccccc4)[nH]c4ccccc34)c3c(N)n[nH]c3O2)cc1 (stereo not given) | 3
Cc1ccc2[nH]c(-c3ccccc3)c(C3C=C(c4ccc(Cl)cc4)Oc4nc5oc(=O)c(C#N)c(N)c5c(N)c43)c2c1 (stereo not given) | 11

test system: Aspergillus terreus; experiment: Antimicrobial activity against Aspergillus terreus MTCC 1782 at 500 ug/ml after 72 hrs by cup plate method; assay type: functional; details: MTCC 1782, 72 h, read-out: IZ

SMILES | zone of inhibition at 500 µg/mL [mm]
Cc1ccc(C2=CC(c3c(-c4ccccc4)[nH]c4ccccc34)c3c(N)n[nH]c3O2)cc1 (stereo not given) | 4
Cc1ccc2[nH]c(-c3ccccc3)c(C3C=C(c4ccc(Cl)cc4)Oc4nc5oc(=O)c(C#N)c(N)c5c(N)c43)c2c1 (stereo not given) | 10

test system: Aspergillus niger; experiment: Antimicrobial activity against Aspergillus niger MTCC 281 at 500 ug/ml after 72 hrs by cup plate method; assay type: functional; details: MTCC 281, 72 h, read-out: IZ

SMILES | zone of inhibition at 500 µg/mL [mm]
Cc1ccc(C2=CC(c3c(-c4ccccc4)[nH]c4ccccc34)c3c(N)n[nH]c3O2)cc1 (stereo not given) | 9
Cc1ccc2[nH]c(-c3ccccc3)c(C3C=C(c4ccc(Cl)cc4)Oc4nc5oc(=O)c(C#N)c(N)c5c(N)c43)c2c1 (stereo not given) | 10

test system: Staphylococcus aureus; experiment: Antimicrobial activity against Staphylococcus aureus ATCC 29513 at 500 ug/ml after 24 hrs by cup plate method; assay type: functional; details: ATCC 29513, 24 h, read-out: IZ

SMILES | zone of inhibition at 500 µg/mL [mm]
Cc1ccc(C2=CC(c3c(-c4ccccc4)[nH]c4ccccc34)c3c(N)n[nH]c3O2)cc1 (stereo not given) | 5
Cc1ccc2[nH]c(-c3ccccc3)c(C3C=C(c4ccc(Cl)cc4)Oc4nc5oc(=O)c(C#N)c(N)c5c(N)c43)c2c1 (stereo not given) | 13

test system: Aspergillus oryzae; experiment: Antimicrobial activity against Aspergillus oryzae MTCC 3567 at 750 ug/ml after 72 hrs by cup plate method; assay type: functional; details: MTCC 3567, 72 h, read-out: IZ

SMILES | zone of inhibition at 750 µg/mL [mm]
Cc1ccc(C2=CC(c3c(-c4ccccc4)[nH]c4ccccc34)c3c(N)n[nH]c3O2)cc1 (stereo not given) | 7
Cc1ccc2[nH]c(-c3ccccc3)c(C3C=C(c4ccc(Cl)cc4)Oc4nc5oc(=O)c(C#N)c(N)c5c(N)c43)c2c1 (stereo not given) | 3

test system: Aspergillus niger; experiment: Antimicrobial activity against Aspergillus niger MTCC 281 at 1000 ug/ml after 72 hrs by cup plate method; assay type: functional; details: MTCC 281, 72 h, read-out: IZ

SMILES | zone of inhibition at 1000 µg/mL [mm]
Cc1ccc(C2=CC(c3c(-c4ccccc4)[nH]c4ccccc34)c3c(N)n[nH]c3O2)cc1 (stereo not given) | 5
Cc1ccc2[nH]c(-c3ccccc3)c(C3C=C(c4ccc(Cl)cc4)Oc4nc5oc(=O)c(C#N)c(N)c5c(N)c43)c2c1 (stereo not given) | 10

test system: Aspergillus flavus; experiment: Antimicrobial activity against Aspergillus flavus MTCC 1973 at 500 ug/ml after 72 hrs by cup plate method; assay type: functional; details: MTCC 1973, 72 h, read-out: IZ

SMILES | zone of inhibition at 500 µg/mL [mm]
Cc1ccc(C2=CC(c3c(-c4ccccc4)[nH]c4ccccc34)c3c(N)n[nH]c3O2)cc1 (stereo not given) | 3
Cc1ccc2[nH]c(-c3ccccc3)c(C3C=C(c4ccc(Cl)cc4)Oc4nc5oc(=O)c(C#N)c(N)c5c(N)c43)c2c1 (stereo not given) | 5

test system: Aspergillus oryzae; experiment: Antimicrobial activity against Aspergillus oryzae MTCC 3567 at 500 ug/ml after 72 hrs by cup plate method; assay type: functional; details: MTCC 3567, 72 h, read-out: IZ

SMILES | zone of inhibition at 500 µg/mL [mm]
Cc1ccc(C2=CC(c3c(-c4ccccc4)[nH]c4ccccc34)c3c(N)n[nH]c3O2)cc1 (stereo not given) | 7
Cc1ccc2[nH]c(-c3ccccc3)c(C3C=C(c4ccc(Cl)cc4)Oc4nc5oc(=O)c(C#N)c(N)c5c(N)c43)c2c1 (stereo not given) | 4

Source: ChEMBL document CHEMBL2346657, “Synthesis of novel 2-amino-4-(5'-substituted 2'-phenyl-1H-indol-3'-yl)-6-aryl-4H-pyran-3-carbonitrile derivatives as antimicrobial and antioxidant agents” (2013)
